Measured values reported in PubChem BioAssay (NCI).
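Grown in 96-well plates, cells were treated for 48 hours with each compound at five concentrations. Insufficient inhibition: endpoint recorded as highest concentration tested. TGI denotes the concentration required for complete inhibition of growth.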

Key:
Assay in all cases: NCI anticancer screen, dose series, 48 h
UACC-257 melanoma = system: UACC-257 melanoma
SF-295 CNS = system: SF-295 CNS
HCT-15 colon = system: HCT-15 colon
RXF 393 renal = system: RXF 393 renal
SK-MEL-28 melanoma = system: SK-MEL-28 melanoma
NCI-H23 lung = system: NCI-H23 lung
HCT-116 colon = system: HCT-116 colon
786-0 renal = system: 786-0 renal
HS 578T breast = system: HS 578T breast
MALME-3M melanoma = system: MALME-3M melanoma
ACHN renal = system: ACHN renal
OVCAR-8 ovarian = system: OVCAR-8 ovarian
UACC-62 melanoma = system: UACC-62 melanoma
KM12 colon = system: KM12 colon
M14 melanoma = system: M14 melanoma
U251 CNS = system: U251 CNS
T-47D breast = system: T-47D breast
SF-539 CNS = system: SF-539 CNS
SN12C renal = system: SN12C renal
OVCAR-3 ovarian = system: OVCAR-3 ovarian
MDA-MB-231 breast = system: MDA-MB-231 breast
NCI-H522 lung = system: NCI-H522 lung
SR leukemia = system: SR leukemia
IGROV1 ovarian = system: IGROV1 ovarian
A498 renal = system: A498 renal
OVCAR-5 ovarian = system: OVCAR-5 ovarian
SK-MEL-2 melanoma = system: SK-MEL-2 melanoma
SF-268 CNS = system: SF-268 CNS
NCI/ADR-RES ovarian = system: NCI/ADR-RES ovarian
RPMI-8226 leukemia = system: RPMI-8226 leukemia
PC-3 prostate = system: PC-3 prostate
SK-MEL-5 melanoma = system: SK-MEL-5 melanoma
OVCAR-4 ovarian = system: OVCAR-4 ovarian
K-562 leukemia = system: K-562 leukemia
UO-31 renal = system: UO-31 renal
MDA-N = system: MDA-N
HL-60(TB) leukemia = system: HL-60(TB) leukemia
SW-620 colon = system: SW-620 colon
DU-145 prostate = system: DU-145 prostate
BT-549 breast = system: BT-549 breast
HOP-92 NSCLC = system: HOP-92 NSCLC
NCI-H226 lung = system: NCI-H226 lung
MCF7 breast = system: MCF7 breast
HT29 colon = system: HT29 colon
NCI-H460 lung = system: NCI-H460 lung
SNB-75 CNS = system: SNB-75 CNS
COLO 205 colon = system: COLO 205 colon
MOLT-4 leukemia = system: MOLT-4 leukemia
MDA-MB-435 = system: MDA-MB-435
SK-OV-3 ovarian = system: SK-OV-3 ovarian
EKVX NSCLC = system: EKVX NSCLC
LOX IMVI melanoma = system: LOX IMVI melanoma
A549 NSCLC = system: A549 NSCLC
SNB-19 CNS = system: SNB-19 CNS
TK-10 renal = system: TK-10 renal
HOP-62 NSCLC = system: HOP-62 NSCLC
CAKI-1 renal = system: CAKI-1 renal
CCRF-CEM leukemia = system: CCRF-CEM leukemia

With `CC(C)NC1(C(N)=O)CCN(Cc2ccccc2)CC1` the TGI (UACC-257 melanoma) was > 100 µM, the TGI (SF-295 CNS) was > 100 µM and the TGI (HCT-15 colon) was > 100 µM. The TGI (RXF 393 renal) was > 100 µM, the TGI (SK-MEL-28 melanoma) was > 100 µM and the TGI (NCI-H23 lung) was > 100 µM. For the same compound, the TGI (HCT-116 colon) was > 100 µM, the TGI (786-0 renal) was > 100 µM and the TGI (HS 578T breast) was > 100 µM. For the same compound, the TGI (MALME-3M melanoma) was > 100 µM, the TGI (ACHN renal) was > 100 µM and the TGI (OVCAR-8 ovarian) was > 100 µM. For the same compound, the TGI (UACC-62 melanoma) was > 100 µM, the TGI (KM12 colon) was > 100 µM and the TGI (M14 melanoma) was > 100 µM. The TGI (U251 CNS) was > 100 µM, the TGI (T-47D breast) was > 100 µM and the TGI (SF-539 CNS) was > 100 µM. The TGI (SN12C renal) was > 100 µM, the TGI (OVCAR-3 ovarian) was > 100 µM and the TGI (MDA-MB-231 breast) was > 100 µM. The TGI (NCI-H522 lung) was > 100 µM, the TGI (SR leukemia) was > 100 µM and the TGI (IGROV1 ovarian) was > 100 µM. For the same compound, the TGI (A498 renal) was > 100 µM, the TGI (OVCAR-5 ovarian) was > 100 µM and the TGI (SK-MEL-2 melanoma) was > 100 µM. For the same compound, the TGI (SF-268 CNS) was > 100 µM, the TGI (NCI/ADR-RES ovarian) was > 100 µM and the TGI (RPMI-8226 leukemia) was > 100 µM. The TGI (PC-3 prostate) was > 100 µM, the TGI (SK-MEL-5 melanoma) was > 100 µM and the TGI (OVCAR-4 ovarian) was > 100 µM. For the same compound, the TGI (K-562 leukemia) was > 100 µM, the TGI (UO-31 renal) was > 100 µM and the TGI (MDA-N) was > 100 µM. The TGI (HL-60(TB) leukemia) was > 100 µM, the TGI (SW-620 colon) was > 100 µM and the TGI (DU-145 prostate) was > 100 µM. For the same compound, the TGI (BT-549 breast) was > 100 µM, the TGI (HOP-92 NSCLC) was > 100 µM and the TGI (NCI-H226 lung) was > 100 µM. For the same compound, the TGI (MCF7 breast) was > 100 µM, the TGI (HT29 colon) was > 100 µM and the TGI (NCI-H460 lung) was > 100 µM. For the same compound, the TGI (SNB-75 CNS) was > 100 µM, the TGI (COLO 205 colon) was > 100 µM and the TGI (MOLT-4 leukemia) was > 100 µM. For the same compound, the TGI (MDA-MB-435) was > 100 µM, the TGI (SK-OV-3 ovarian) was > 100 µM and the TGI (EKVX NSCLC) was > 100 µM. For the same compound, the TGI (LOX IMVI melanoma) was > 100 µM, the TGI (A549 NSCLC) was > 100 µM and the TGI (SNB-19 CNS) was > 100 µM. For the same compound, the TGI (TK-10 renal) was > 100 µM, the TGI (HOP-62 NSCLC) was > 100 µM and the TGI (CAKI-1 renal) was > 100 µM.

In the case of `COc1ccc(N)c(C(=O)CCNC(C)=O)c1`, the TGI (UACC-257 melanoma) is reported as > 100 µM, the TGI (SF-295 CNS) is reported as > 100 µM and the TGI (HCT-15 colon) is reported as > 100 µM. For the same compound, the TGI (RXF 393 renal) was > 100 µM, the TGI (NCI-H23 lung) was > 100 µM and the TGI (HCT-116 colon) was > 100 µM. For the same compound, the TGI (786-0 renal) was > 100 µM, the TGI (HS 578T breast) was > 100 µM and the TGI (ACHN renal) was > 100 µM. The TGI (OVCAR-8 ovarian) was > 100 µM, the TGI (UACC-62 melanoma) was > 100 µM and the TGI (KM12 colon) was > 100 µM. For the same compound, the TGI (M14 melanoma) was > 100 µM, the TGI (U251 CNS) was > 100 µM and the TGI (T-47D breast) was > 100 µM. For the same compound, the TGI (SF-539 CNS) was > 100 µM, the TGI (SN12C renal) was > 100 µM and the TGI (OVCAR-3 ovarian) was > 100 µM. For the same compound, the TGI (MDA-MB-231 breast) was > 100 µM, the TGI (NCI-H522 lung) was > 100 µM and the TGI (SR leukemia) was > 100 µM. The TGI (IGROV1 ovarian) was > 100 µM, the TGI (A498 renal) was > 100 µM and the TGI (OVCAR-5 ovarian) was > 100 µM. The TGI (SK-MEL-2 melanoma) was > 100 µM, the TGI (SF-268 CNS) was > 100 µM and the TGI (NCI/ADR-RES ovarian) was > 100 µM. The TGI (RPMI-8226 leukemia) was > 100 µM, the TGI (PC-3 prostate) was > 100 µM and the TGI (SK-MEL-5 melanoma) was > 100 µM. For the same compound, the TGI (OVCAR-4 ovarian) was > 100 µM, the TGI (UO-31 renal) was > 100 µM and the TGI (MDA-N) was > 100 µM. For the same compound, the TGI (HL-60(TB) leukemia) was > 100 µM, the TGI (SW-620 colon) was > 100 µM and the TGI (DU-145 prostate) was > 100 µM. The TGI (BT-549 breast) was > 100 µM, the TGI (HOP-92 NSCLC) was > 100 µM and the TGI (NCI-H226 lung) was > 100 µM. For the same compound, the TGI (CCRF-CEM leukemia) was > 100 µM, the TGI (MCF7 breast) was > 100 µM and the TGI (HT29 colon) was > 100 µM. For the same compound, the TGI (NCI-H460 lung) was > 100 µM, the TGI (SNB-75 CNS) was > 100 µM and the TGI (COLO 205 colon) was > 100 µM. The TGI (MOLT-4 leukemia) was > 100 µM, the TGI (MDA-MB-435) was > 100 µM and the TGI (SK-OV-3 ovarian) was > 100 µM. For the same compound, the TGI (EKVX NSCLC) was > 100 µM, the TGI (LOX IMVI melanoma) was > 100 µM and the TGI (A549 NSCLC) was > 100 µM. For the same compound, the TGI (SNB-19 CNS) was > 100 µM, the TGI (TK-10 renal) was > 100 µM and the TGI (CAKI-1 renal) was > 100 µM.

`CCC1c2[nH]c3ccccc3c2C[C@H]2C(=O)NC(Cc3c[nH]c4ccccc34)C(=O)N12` (stereo not given in full) gave a TGI (UACC-257 melanoma) of 42.2 µM, a TGI (SF-295 CNS) of 35 µM and a TGI (HCT-15 colon) of 78.2 µM. The TGI (RXF 393 renal) was 37.1 µM, the TGI (SK-MEL-28 melanoma) was > 100 µM and the TGI (NCI-H23 lung) was 63.2 µM. For the same compound, the TGI (HCT-116 colon) was 35.1 µM, the TGI (786-0 renal) was 55.1 µM and the TGI (HS 578T breast) was 49.4 µM. The TGI (MALME-3M melanoma) was 36.3 µM, the TGI (ACHN renal) was > 100 µM and the TGI (OVCAR-8 ovarian) was 94 µM. The TGI (UACC-62 melanoma) was 32.6 µM, the TGI (KM12 colon) was 43.4 µM and the TGI (M14 melanoma) was 49.2 µM. The TGI (U251 CNS) was 34.7 µM, the TGI (T-47D breast) was > 100 µM and the TGI (SN12C renal) was 52.6 µM. For the same compound, the TGI (OVCAR-3 ovarian) was 37.8 µM, the TGI (MDA-MB-231 breast) was 38.1 µM and the TGI (NCI-H522 lung) was 55 µM. The TGI (SR leukemia) was 49.6 µM, the TGI (IGROV1 ovarian) was 65.2 µM and the TGI (A498 renal) was > 100 µM. For the same compound, the TGI (OVCAR-5 ovarian) was 58.5 µM, the TGI (SK-MEL-2 melanoma) was 38.6 µM and the TGI (SF-268 CNS) was > 100 µM. For the same compound, the TGI (NCI/ADR-RES ovarian) was 76.6 µM, the TGI (RPMI-8226 leukemia) was 55.8 µM and the TGI (PC-3 prostate) was 53.1 µM. For the same compound, the TGI (SK-MEL-5 melanoma) was 31.8 µM, the TGI (OVCAR-4 ovarian) was > 100 µM and the TGI (K-562 leukemia) was > 100 µM. The TGI (UO-31 renal) was > 100 µM, the TGI (MDA-N) was 55.2 µM and the TGI (HL-60(TB) leukemia) was 46.4 µM. The TGI (SW-620 colon) was > 100 µM, the TGI (DU-145 prostate) was > 100 µM and the TGI (BT-549 breast) was 52.9 µM. The TGI (HOP-92 NSCLC) was 74 µM, the TGI (NCI-H226 lung) was 82.1 µM and the TGI (MCF7 breast) was > 100 µM. For the same compound, the TGI (HT29 colon) was 62.2 µM, the TGI (COLO 205 colon) was 36.2 µM and the TGI (MOLT-4 leukemia) was 47.9 µM. The TGI (MDA-MB-435) was 41.1 µM, the TGI (SK-OV-3 ovarian) was > 100 µM and the TGI (EKVX NSCLC) was 88.3 µM. The TGI (LOX IMVI melanoma) was 49.3 µM, the TGI (A549 NSCLC) was > 100 µM and the TGI (SNB-19 CNS) was > 100 µM. For the same compound, the TGI (TK-10 renal) was 80.4 µM, the TGI (HOP-62 NSCLC) was 50.6 µM and the TGI (CAKI-1 renal) was 67.3 µM.
